These results are taken from publication doi:10.1101/2021.04.14.439284v2 (biorxiv, 2021).

For assay [1], the target named is T1, bovine serum albumin (BSA) (Bos taurus, UniProt P02769).
T1 construct: gene ALB; commercial native protein (Sigma Aldrich), non-modified
Nature of the assay: uSTA saturation transfer NMR, Bloch-McConnell fit. Type of assay: binding.

In assay [2] the target is T2, E. coli trehalose repressor TreR (Escherichia coli, UniProt P36673).
T2 sequence (P36673 1-315): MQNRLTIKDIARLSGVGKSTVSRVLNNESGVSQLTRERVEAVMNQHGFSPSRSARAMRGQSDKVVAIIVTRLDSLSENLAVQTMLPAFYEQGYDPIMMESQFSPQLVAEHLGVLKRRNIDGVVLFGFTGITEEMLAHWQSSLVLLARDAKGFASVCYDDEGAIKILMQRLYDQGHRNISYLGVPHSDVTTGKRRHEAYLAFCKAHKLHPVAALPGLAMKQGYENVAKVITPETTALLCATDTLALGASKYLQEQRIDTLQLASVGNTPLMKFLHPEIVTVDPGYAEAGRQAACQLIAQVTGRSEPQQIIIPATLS
Nature of the assay: uSTA saturation transfer NMR. It counts as binding. Conditions: weak ligand.

T1 sequence (P02769 25-607): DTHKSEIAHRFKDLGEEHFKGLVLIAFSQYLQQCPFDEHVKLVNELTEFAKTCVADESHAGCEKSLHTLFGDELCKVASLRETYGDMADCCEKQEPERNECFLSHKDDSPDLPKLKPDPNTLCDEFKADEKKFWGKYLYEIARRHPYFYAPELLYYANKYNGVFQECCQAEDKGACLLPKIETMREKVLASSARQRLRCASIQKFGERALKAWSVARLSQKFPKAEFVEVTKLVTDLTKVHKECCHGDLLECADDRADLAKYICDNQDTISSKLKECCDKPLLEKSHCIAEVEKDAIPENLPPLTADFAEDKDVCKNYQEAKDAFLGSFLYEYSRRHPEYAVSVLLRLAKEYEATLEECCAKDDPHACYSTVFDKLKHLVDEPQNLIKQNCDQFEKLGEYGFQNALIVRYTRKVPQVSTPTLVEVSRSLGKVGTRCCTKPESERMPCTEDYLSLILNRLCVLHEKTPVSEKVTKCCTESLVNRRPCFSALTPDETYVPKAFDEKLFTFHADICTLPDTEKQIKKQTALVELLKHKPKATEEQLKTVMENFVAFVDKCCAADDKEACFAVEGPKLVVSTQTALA

In the case of `N[C@@H](Cc1c[nH]c2ccccc12)C(=O)O` [L-tryptophan], binding in assay [1] was characterised by a dissociation constant (Kd) of 38 ± 15 µM. `OC[C@H]1O[C@H](O[C@H]2O[C@H](CO)[C@@H](O)[C@H](O)[C@H]2O)[C@H](O)[C@@H](O)[C@@H]1O` [trehalose]: the transfer efficiency entry in assay [2] is reported as “trehalose (Tre) binds only weakly to trehalose repressor protein TreR”.
